{"source": "paper PMC4575030", "about": "(PLoS ONE, 2015)", "key": {"Aδ-fiber nociceptors": {"tested_on": "Aδ-fiber nociceptors", "assay": "In vivo teased-fiber recording from tibial nerve after CFA, Aδ-fibers", "set-up": "species or system rat", "settings": "i.v. 2.5 mg", "protocol": "A total of 55 adult, male, Sprague–Dawley rats (Harlan, Indianapolis, IN) weighing 300–350 g were used for electrophysiology. To ensure that electrophysiology studies were performed on rats with mechanical hyperalgesia, behavioral measures of mechanical hyperalgesia were obtained before and at 24 h after administration of CFA (and just prior to the electrophysiological studies). Mechanical hyperalgesia was assessed by determining the frequency of paw withdrawal evoked by mechanical stimulation using a 26 g Semmes-Weinstein von Frey monofilament (Stoelting, Wood Dale, IL). Rats were placed on an elevated wire mesh platform under individual plastic cages and acclimated to the testing environment for 30 minutes prior to testing. The monofilament was applied to the mid-plantar surface of the hindpaw ten times for 1–2 s each with an inter-stimulus interval of approximately 5–10 s and the paw withdrawal frequency (percent) was determined. Baseline measures were determined for each rat for three consecutive days prior to injection of CFA. […]\nRecordings were made from cutaneous afferent fibers of the left tibial nerve using a teased-fiber approach. […] Teased fibers were placed onto a tungsten wire electrode and action potentials were recorded extracellularly. […] Responses of individual fibers were analyzed off-line using the Spike2 data analysis program (Cambridge Electronic Design, Cambridge, UK). […]"}, "naïve rats": {"tested_on": "naïve rats", "assay": "Open field activity (basic movement)", "assay_type": "in vivo, rat", "settings": "formalin-naïve rats", "protocol": "Basic movement was measured using the Photobeam Activity System Open Field (San Diego Instruments, San Diego, CA) equipped with 48 infrared photocell emitters and detectors. Photobeams used to measure vertical movement were positioned 14 cm above the test chamber floor. Each testing chamber was made of Plexiglas (41 x 41 x 36 cm) and was devoid of any bedding. At the beginning of the test session, each animal was placed in a separate testing chamber and the room lights were turned off. Basic movement was measured for 30 minutes."}, "[1]": {"tested_on": "rat formalin model of pain", "assay": "Formalin test (formalin-induced flinching)", "assay_type": "in vivo", "settings": "for Decrease in formalin flinching: phase 2 (10 to 40 min), percent of vehicle", "protocol": "Formalin-induced flinching was measured using the Automated Nociception Analyzer (ANA) (University Anesthesia Research & Development Group, La Jolla, CA). Rats were habituated to the ANA testing chambers for at least 30 minutes prior to the formalin injection. At test time, each rat was removed from the testing chamber and gently wrapped in a towel. 50 μL of 2.5% formalin solution was injected into the dorsal surface of the left hind paw with a 30 gauge needle. A small metal band was then affixed to the plantar side of the injected paw with one drop of super glue. The animal was then unwrapped from the towel, placed back in the testing chamber, and flinching behavior was scored for 40 minutes by the ANA software. While minimized, non-painful paw movement from the natural activity of an alert animal could be erroneously binned by the automated recording system as a nociceptive behavior. These behaviors are not subtracted from the flinching total. […] Total flinching behavior was used as the endpoint of the assay."}, "rat CFA model of pain": {"tested_on": "rat CFA model of pain", "assay": "CFA-induced thermal hyperalgesia", "assay_type": "in vivo", "settings": "120 min after dosing, 24 h after CFA", "protocol": "CFA-induced thermal hyperalgesia was measured using the Thermal Plantar Analgesia Instrument (Ugo Basile, Italy). Intensity of the radiant heat stimulus was adjusted to achieve a withdrawal latency of approximately 13 s in naïve animals. On test day one, animals were placed on the apparatus in their individual testing chambers with an absorbent towel at the bottom and allowed to habituate for at least 30 minutes. The towel was then removed and animals were allowed to acclimate for at least 15 minutes more. After habituation, animals were placed back in their home cages until the following day. On test day two, animals were placed back in the testing chambers until calm (typically 20 minutes). The thermal device was positioned on the center of the left hind paw and the test was started. The time for the animal to withdraw its paw from the thermal stimulus was recorded. A cut-off of 30 seconds was used to prevent tissue damage. Few trials went past 20 seconds and none past 25 seconds. This procedure was repeated for three trials per animal, each separated by at least 5 min, and trials were averaged to determine baseline withdrawal latencies. After determining baseline measures, each animal received an injection of 50 μl CFA (1:1 emulsion with PBS, Sigma, St. Louis, MO) into the plantar side of the left hind paw with a 26 gauge needle. Animals were then placed back in their home cages until the following day. Approximately 24 h after the CFA injection, withdrawal latencies to heat were determined as described above. Animals were then randomized based on their Post-CFA baseline score and treated with the test compound or vehicle. […] The experimenter was blinded to drug treatment during this assay. Percent return to baseline latency was used as the endpoint of the assay."}, "[2]": {"assay": "Terminal plasma and brain concentrations after behavioral testing", "assay_type": "in vivo, rat"}}, "data": [{"smiles": "CC(=O)Nc1cccc(Nc2ncnc(N3CCC(OCc4ccc(OC(F)(F)F)cc4)CC3)n2)c1C", "note": "[Compound 52, N-(2-methyl-3-((4-(4-((4-(trifluoromethoxy)benzyl)oxy)-1-piperidinyl)-1,3,5-triazin-2-yl)amino)phenyl)acetamide]", "values": [{"measurement": "Mechanical response thresholds of Aδ-fiber nociceptors", "setting": "Aδ-fiber nociceptors", "value": "Neither vehicle nor compound 52 altered"}, {"measurement": "Rate of ongoing spontaneous activity of Aδ-fiber nociceptors", "setting": "Aδ-fiber nociceptors", "value": "did not reduce the rate of ongoing spontaneous activity"}, {"measurement": "Decrease in basic movement", "setting": "naïve rats; 3 mg/kg p.o.", "value": 3, "unit": "%"}, {"measurement": "Decrease in basic movement", "setting": "naïve rats; 10 mg/kg p.o., negative value = increase", "value": 11, "unit": "%"}, {"measurement": "Decrease in basic movement", "setting": "naïve rats; 30 mg/kg p.o.", "value": 54, "unit": "%"}, {"measurement": "Decrease in formalin flinching", "setting": "[1]; 3 mg/kg p.o.", "value": 9, "unit": "%"}, {"measurement": "Decrease in formalin flinching", "setting": "[1]; 10 mg/kg p.o.", "value": 22, "unit": "%"}, {"measurement": "Decrease in formalin flinching", "setting": "[1]; 30 mg/kg p.o.", "value": 79, "unit": "%"}, {"measurement": "Analgesic efficacy", "setting": "[1]; rat formalin model, significant (p < 0.05) decrease in flinching at a dose without a reduction in open field movement that obviated the result", "value": "Yes"}, {"measurement": "Reduction in formalin flinching, result in words", "setting": "[1]; rat formalin test", "value": "statistically significant and plasma concentration-dependent reduction in formalin flinching"}, {"measurement": "Behavioral analgesic efficacy in the formalin model, i.v. delivery", "setting": "[1]; same formulation and i.v. route as electrophysiology, data not shown", "value": "equivalent to morphine"}, {"measurement": "Average reversal of thermal hyperalgesia compared to baseline", "setting": "rat CFA model of pain; 10 mg/kg p.o.", "value": 40, "unit": "%"}, {"measurement": "Average reversal of thermal hyperalgesia compared to baseline", "setting": "rat CFA model of pain; 30 mg/kg p.o.", "value": 53, "unit": "%"}, {"measurement": "Kp", "setting": "[2]; brain and plasma, rat, ratio of concentrations measured following the formalin test", "value": 0.3}, {"measurement": "Effective [plasma]", "setting": "[2]; mean terminal plasma concentration at the lowest effective dose in the rat formalin test", "value": 1.93, "unit": "µM"}]}]}
